# Experimental data taken from patent US20050175599A1, “Process for producing substance” (Kyowa Hakko Kogyo Co., Ltd., priority 2001, published 2005).
# Tested on: transformant cell line NS0/LCA-CCR4 producing chimeric anti-CCR4 antibody
# Assay: Batch culture of antibody-producing cells in Q10-containing serum fraction-added medium (Example 4)
# Format: cell-based, mouse
# Details: 100 μmol/L Q10 (added as SANOMIT), 4th day
# Experimental: The batch culture was performed using transformant cell line NS0/LCA-CCR4 (FERM BP-7964) producing chimeric anti-CCR4 antibody as prepared in Reference Example 1. […]
# The cumulative number of viable cells is shown as the total sum of the viable cell density multiplied by the time as elapsed. In the present Example, as the viable cell density was measured once, the cumulative number of viable cells was calculated by the following equation as a trapezoidal area formed by the change of the cell density with time related to the inoculated cell density and the measured cell density. Cumulative number of viable cells (cells/mL×days)=(inoculated cell density+measured cell density)×time as elapsed÷2
# The specific antibody production rate and the relative specific antibody production rate were calculated respectively by the method described in Example 1.
# (3) Quantitative Determination of an Antibody in a Culture Supernatant by IgG-ELISA
# The concentration of chimeric anti-CCR4 antibody in the culture supernatant was measured as follows. […]
smiles,measurement,setting,value
COC1=C(OC)C(=O)C(C/C=C(\C)CC/C=C(\C)CC/C=C(\C)CC/C=C(\C)CC/C=C(\C)CC/C=C(\C)CC/C=C(\C)CC/C=C(\C)CC/C=C(\C)CCC=C(C)C)=C(C)C1=O [Q10],cumulative number of cells on the completion of culturing,Q10-free culture 1.59×10^6,1.34×10^6 cells/mL×days
same,relative specific antibody production rate,Q10-free culture = 100%,131.9%
